Patent publication US10391070B2, “Compositions and methods for treating neurological diseases or injury” (MUSC FOUNDATION FOR RESEARCH DEVELOPMENT, priority 2012, dated 2019)
Read-outs that look alike come from different tables or passages of the source.

Experiments:
HT22 cells [1] = assay: In vitro neuroprotective activity against glutamate-induced cell death (MTS cell viability); format: cell-based, mouse; conditions: HT22 cells; for EC50: 24 hrs, MTS, concentration producing 50% protection, read-out: Protection PC50
Description: (§1) The HT22 neuronal cell line is a subclone of HT4, derived from the mouse hippocampus (Morimoto and Koshland, 1990). […] HT22 cells were used. The cells were grown in Dulbecco's Modified Eagle's medium (DMEM/high glucose) supplemented with 10% fetal bovine serum (Hyclone) and 5 mL Antibiotic-Antimycotic (Amphotericin B, Penicillin, and Streptomycin; Invitrogen) at 37° C. in 5% CO2.
(§2) Cell viability was assessed by the ability of the viable cells to metabolize 3-(4,5-dimethylthiazol-2-yl)-5-(3-carboxymethoxyphenyl)-2(4-sulfophenyl)2-H-tetrazolium, inner salt (MTS), as described previously (Cory et al., 1991). The metabolism of tetrazolium salts is often used to measure cellular proliferation, but in the system used here, it has been previously shown to correlate well with cell viability as determined by trypan blue exclusion and colony-forming assays (Davis and Maher, 1994). Briefly, HT-22 cells were seeded onto 96-well plates at 5.0×10^3 cells per well in 75 μL of medium and maintained at 37° C. in 5% CO2 overnight prior to the initiation of experimental treatments. For glutamate toxicity testing, cells were subsequently treated with 25 μL of medium containing glutamate (monosodium glutamate, Sigma, 1 M stock concentration in media, to achieve a final concentration of 10 mM) plus inhibitors (stock in DMSO) and maintained at 37° C. in 5% CO2. For t-BuOOH toxicity testing, cells were subsequently treated with 25 μL of medium containing t-BuOOH (Sigma, 10 mM stock concentration, to achieve a final concentration of 50 μM) plus inhibitors (stock in DMSO) and maintained at 37° C. in 5% CO2 for 3 hours, after which the media was removed, cells washed gently with HBSS, the media replaced with standard culture media, and the cells returned to incubation at 37° C. in 5% CO2. For both glutamate and t-BuOOH treatments, 10 μl of MTS solution was added to each well 24 hrs after initial treatment, and the cells were maintained in growth medium for 2 h at 37° C. Absorbance at 490 nm was subsequently measured by a SpectraMax 190 plate reader (Molecular Devices). The growth medium without cells in the presence of MTS solution was used as solution background and untreated cells were considered the controls. Cell viability was calculated as a percentage compared with untreated controls. EC50 determinations were based on 12-point titrations using GraphPad Prism, and each experiment was repeated at least four times. Morphology of HT22 cells following treatments was determined by phase-contrast microscopy. Digital images of cells grown on cell culture plates were captured at 10× magnification.
The neuroprotective properties of VK and its derivatives were estimated through their protective effects against cell death in mouse neuronal HT22 cells induced by exposure to high levels of glutamate, which recapitulates a hallmark of the extracellular environment found in several neurodegenerative diseases and CNS injuries and is a well established model of neuronal oxidative stress. This investigation began by comparing the relative abilities of the two predominant naturally occurring forms of VK, VK1 and VK2, to prevent oxidative cell death. […] Several 1,4-naphthoquinones with various substitutions at the 2′ and 3′ positions were tested to determine the minimum structural requirement of the system and what the optimum scaffold for future developmental efforts and biological validation would be (FIG. 1B and Table 1). […] Substitution by a single methyl group at the 2′ position (VK3) improves the compound's ability to protect against cell death. Various other simple substituents at the 2′ and 3′ positions give the naphthoquinone structure the ability to prevent oxidative cell death at nanomolar concentrations (Table 1 and FIG. 16).

HT22 cells [2] = assay: In vitro neurotoxicity without glutamate (MTS cell viability); format: cell-based, mouse; conditions: for Safety Index TC50/PC50: HT22 cells
Description: as §1, §2

HT22 cells [3] = assay: Glutathione determination in glutamate-treated cells; format: cell-based, mouse; conditions: HT22, 10 mM glutamate 8 hrs, 500 nM
Description: The content of total glutathione (reduced and oxidized) in the supernatant of cell homogenate was measured using the glutathione assay kit (Cayman Chemical) in microtiter plate assay, which utilizes an enzymatic recycling method, using glutathione reductase, for the quantification of glutathione. The sulfhydryl group of glutathione reacted with 5,5′-dithiobis-2-nitrobenzoic acid (DTNB) and produced a yellow-colored 5-thio-2-nitrobenzoic acid (TNB), which was measured at 405 nm.

HT22 cells [4] = assay: Intracellular ROS measurement (Rho123, CM-H2DCFDA); format: cell-based, mouse; conditions: HT22, 10 mM glutamate 8 hrs, 250 nM
Description: Intracellular generation of ROS was evaluated by spectrofluorometry using the membrane-permeable compound dihydrorhodamine 123 (Rho123; Invitrogen), and images were collected using 5-(and -6)-chloromethyl-2′,7′-dichlorodihydrofluorescein diacetate, acetyl ester (CM-H2DCFDA; Invitrogen). Briefly, HT-22 cells were seeded onto black walled 96-well plates at 5.0×10^3 cells per well in 75 μL of medium and maintained at 37° C. in 5% CO2 overnight prior to the initiation of experimental treatments. Cells were subsequently treated with 25 μL of medium containing glutamate (monosodium glutamate, Sigma, 1 M stock concentration in media, to achieve a final concentration of 10 mM) plus inhibitors (stock in DMSO) and maintained at 37° C. in 5% CO2. After 8 hrs, Rho123 (5 μM), CM-H2DCFDA (1 μM), or MitoSox (5 μM) and Mitotracker DR (10 nM) was added to achieve the indicated final concentrations. Cells were allowed to incubate for 20 minutes and then washed twice with Hanks Balanced Salt Solution (HBSS; Hyclone; CaCl2 1.26 mM, MgCl2-6H2O 0.493 mM, MgSO4-7H2O 0.407 mM, KCl 5.33 mM, KH2PO4 0.441 mM, NaHCO3 4.17 mM, NaCl 137.93 mM, Na2HPO4 0.338 mM, D-Glucose 5.56 mM), with a final addition of 100 μL of HBSS in which the cells were visualized. Fluorescence of the oxidized Rho123 was measured using a Fluoroskan Ascent spectrofluorometer (Labsystems). Peak excitation and emission wavelengths were 500 and 536, respectively. For fluorescent imaging of the oxidation product of CM-H2DCFDA, cells were immediately visualized using an InCell 2000 Analyzer (GE) with a 40× objective and a FITC excitation/emission filter set. Image processing was performed using ImageJ, and for all images, the microscope and image processing settings, such as levels, brightness, contrast, and exposure time were held constant across all treatment conditions.

[5] = Antioxidant activity assay (DPPH free radical scavenging); conditions: 20 μM, 100 μM DPPH in methanol
Description: Antioxidant activity of various reagents was assayed as previously described by monitoring the disappearance of the optical absorbance of the stable-free radical DPPH on reaction with test compounds (Blois, 1958). The rate of the reaction represents the antioxidant potency of test agents. The known free radical scavenger Trolox and ascorbic acid were used as positive controls. Briefly, 10 μL of test reagents at final concentrations of 20 μM were added to 200 μL of 100 μM DPPH in methanol. Optical absorbance of DPPH at 517 nm was immediately monitored for 10 min.

[6] = HT22 cells without glutamate, 24 hrs, MTS, concentration producing 50% toxicity, read-out: Toxicity TC50
[7] = Mus musculus, HT-22, 10 mM glutamate

Compound: CC1=CC(=O)c2ccccc2C1=O [VK3, menadione, reference compound]
- EC50 (HT22 cells [1]; 10 mM glutamate): 797 nM
- Safety Index TC50/PC50 (HT22 cells [2]): 24
- CC50 (HT22 cells [2]; [6]): 19 µM

Compound: O=C1C=C(NCc2ccccc2)C(=O)c2ccccc21 [Compound 2j, 2-(benzylamino)naphthalene-1,4-dione]
- EC50 (HT22 cells [1]; [7]): 88 nM
- Safety Index TC50/PC50 (HT22 cells [2]): 1,136
- CC50 (HT22 cells [2]; [6]): > 100 µM
- depletion of total cellular GSH (HT22 cells [3]): does not prevent GSH
- ROS accumulation (Rho123) (HT22 cells [4]): prevent the accumulation of ROS
- free radical scavenging capacity (DPPH absorbance) [5]: did not show direct antioxidant capacity

Compound: C#CCNC1=CC(=O)c2ccccc2C1=O [Compound 2h, 2-(prop-2-yn-1-ylamino)naphthalene-1,4-dione]
- EC50 (HT22 cells [1]; [7]): 120 nM
- Safety Index TC50/PC50 (HT22 cells [2]): 442
- CC50 (HT22 cells [2]; [6]): 53 µM

Compound: menaquinones [VK2, reference compound]
- EC50 (HT22 cells [1]; 10 mM glutamate): 432 nM
- protection from oxidative cell death (HT22 cells [1]; glutamate): rescued HT22 cells from oxidative cell death
- CC50 (HT22 cells [2]): > 100 µM
- cellular toxicity (HT22 cells [2]): neither exhibited any signs of cellular toxicity
- Safety Index TC50/PC50 (HT22 cells [2]): 231
- depletion of total cellular GSH (HT22 cells [3]): does not prevent GSH
- ROS accumulation (Rho123) (HT22 cells [4]): less effective
- free radical scavenging capacity (DPPH absorbance) [5]: did not show direct antioxidant capacity

Compound: O=C1C=C(NCc2cccc(Cl)c2)C(=O)c2ccccc21 [Compound 2q, 2-((3-chlorobenzyl)amino)naphthalene-1,4-dione]
- fold increase in PC50 potency over VK2 (HT22 cells [1]; 10 mM glutamate): more than 10 fold
- fold increase in PC50 potency over compound 2j (HT22 cells [1]; 10 mM glutamate): ~3 fold
- EC50 (HT22 cells [1]; [7]): 31 nM
- Safety Index TC50/PC50 (HT22 cells [2]): 3,226
- CC50 (HT22 cells [2]; [6]): > 100 µM
- depletion of total cellular GSH (HT22 cells [3]): does not prevent GSH
- ROS accumulation (Rho123) (HT22 cells [4]): prevent the accumulation of ROS
- free radical scavenging capacity (DPPH absorbance) [5]: did not show direct antioxidant capacity
